Measured values as given in patent US20240336624A1, “PARP INHIBITOR CONTAINING PIPERAZINE STRUCTURE, PREPARATION METHOD THEREFOR AND PHARMACEUTICAL USE THEREOF” (WIGEN BIOMEDICINE TECHNOLOGY (SHANGHAI) CO., LTD., priority 2021, published 2024).

Biological target: PARP-1 enzyme (Homo sapiens, UniProt P09874)
Assay: In vitro inhibition of activity of poly (ADP-ribose) polymerase [PARP-1 enzyme], histone-coated plate chemiluminescence
Type: biochemical
Conditions: class symbols; read-out: Inhibitory activity against PARP-1 (IC50)
Procedure: Example 69. Experiment on In Vitro Inhibition of Activity of Poly (ADP-Ribose) Polymerase [PARP-1 Enzyme] with Compounds of the Present Invention
The histones were coated onto 384-well plates at 4° C. overnight, rinsed three times with a PBST buffer, and blocked at room temperature for 1 h. After 1 h, the histones were rinsed three more times with PBST, DMSO or a serially diluted compound, and a mixture containing PARP-1 enzymes and DNA was added, and the resulting mixture was incubated at 25° C. for 10 min. After 10 min NAD^+ was added to start the reaction. After reacting at room temperature for 60 min, the reaction solution was rinsed three times with PBST, and the level of poly/mono-ADP ribose on the histones was detected by the addition of a poly/mono-ADP ribose antibody conjugated with horseradish peroxidase ([…]). After incubation at room temperature for 1 h, HRP substrates ECL A and B were added, and Envision quantified chemiluminescence. The inhibition percentages and IC50 of the compounds were calculated compared to the control group DMSO.

Chain of PARP-1 enzyme (P09874 whole entry): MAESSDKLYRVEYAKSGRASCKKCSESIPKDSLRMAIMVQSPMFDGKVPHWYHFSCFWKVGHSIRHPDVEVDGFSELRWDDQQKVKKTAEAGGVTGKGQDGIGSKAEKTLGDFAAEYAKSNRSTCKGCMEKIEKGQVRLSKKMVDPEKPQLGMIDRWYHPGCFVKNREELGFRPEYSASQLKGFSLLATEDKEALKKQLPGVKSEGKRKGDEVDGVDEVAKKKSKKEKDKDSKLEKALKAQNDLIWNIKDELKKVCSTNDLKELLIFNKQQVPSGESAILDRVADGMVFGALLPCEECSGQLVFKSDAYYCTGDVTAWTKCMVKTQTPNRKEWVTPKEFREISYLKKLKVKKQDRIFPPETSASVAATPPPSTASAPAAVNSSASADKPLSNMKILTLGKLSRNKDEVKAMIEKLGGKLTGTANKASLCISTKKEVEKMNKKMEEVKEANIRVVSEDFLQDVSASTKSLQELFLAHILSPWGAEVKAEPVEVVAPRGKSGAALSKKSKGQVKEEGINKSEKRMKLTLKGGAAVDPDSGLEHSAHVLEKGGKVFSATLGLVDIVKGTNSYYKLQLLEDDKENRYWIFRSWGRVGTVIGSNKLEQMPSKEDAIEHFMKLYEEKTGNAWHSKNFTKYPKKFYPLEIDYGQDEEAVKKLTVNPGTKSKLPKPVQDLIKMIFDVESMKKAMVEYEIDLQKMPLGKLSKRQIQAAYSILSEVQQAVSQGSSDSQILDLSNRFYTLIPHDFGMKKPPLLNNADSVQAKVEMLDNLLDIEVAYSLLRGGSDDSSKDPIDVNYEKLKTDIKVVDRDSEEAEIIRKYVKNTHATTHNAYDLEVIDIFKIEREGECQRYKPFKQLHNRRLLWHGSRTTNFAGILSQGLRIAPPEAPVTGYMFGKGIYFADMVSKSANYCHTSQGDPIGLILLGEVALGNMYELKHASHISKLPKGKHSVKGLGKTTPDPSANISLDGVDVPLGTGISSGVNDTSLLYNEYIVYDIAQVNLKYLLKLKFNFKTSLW

`CCc1cc2ccc(CN3CCN(c4ccc(C(=O)NC)nc4C(F)F)CC3)nc2[nH]c1=O` [Compound 53] and `CCc1cc2ccc(CN3CCN(c4ccc(C(=O)NC)nc4F)CC3)nc2[nH]c1=O` [Compound 54] cannot be ordered by IC50: 10 to 50 nM for the first, ≤ 10 nM for the second.

`CCc1nc(C(=O)NC2CC2)ccc1N1CCN(Cc2ccc3nc(CC)c(=O)[nH]c3c2)CC1` [Compound 23] and `CCc1nc2ccc(CN3CCN(c4ccc(C(=O)NC5CC5)nc4C)CC3)cc2[nH]c1=O` [Compound 25] cannot be ordered by IC50: ≤ 10 nM for the first, ≤ 10 nM for the second.

`CCc1nc2ccc(C(C)N3CCN(c4ccc(C(=O)NC5CC5)nc4)CC3)cc2[nH]c1=O` (stereo not drawn) [Compound 19] and `CCc1cc2ncc(C(C)N3CCN(c4ccc(C(=O)NC5CC5)nc4)CC3)cc2[nH]c1=O` (stereo not drawn) [Compound 10] cannot be ordered by IC50: ≤ 10 nM for the first, 10 to 50 nM for the second.

`CCc1nc2ccc(CN3CCN(c4ccc(C(=O)NC5CC5)nc4F)CC3)cc2[nH]c1=O` [Compound 18] and `CCc1nc2ccc(CN3CCN(c4ccc(C(=O)NC5CC5)nc4C(F)F)CC3)cc2[nH]c1=O` [Compound 24] cannot be ordered by IC50: ≤ 10 nM for the first, ≤ 10 nM for the second.

First: CCc1cc2ncc(CN3CCN(c4ccc(C(=O)NC5CCC5)nc4)CC3)cc2[nH]c1=O [Compound 6]
Second: CCc1cc2ncc(CN3CCN(c4ccc(C(=O)NC5CC(F)C5)nc4)CC3)cc2[nH]c1=O (stereo not drawn) [Compound 12]
The IC50 of the first is higher: > 50 nM for the first, ≤ 10 nM for the second.

`CCc1cc2ccc(CN3CCN(c4ccc(C(=O)NC5CC5)nc4)CC3)nc2[nH]c1=O` [Compound 52] and `CCc1cc2ccc(CN3CCN(c4ccc(C(=O)NC)nc4)CC3)nc2[nH]c1=O` [Compound 45] cannot be ordered by IC50: 10 to 50 nM for the first, ≤ 10 nM for the second.

`O=C(NC1CC1)c1ccc(N2CCN(Cc3ccc4nc(CCF)c(=O)[nH]c4c3)CC2)cn1` [Compound 16] and `CCc1nc2ccc(CN3CCN(c4ccc(C(=O)NC5CC5)nc4)CC3)cc2[nH]c1=O` [Compound 14] cannot be ordered by IC50: ≤ 10 nM for the first, ≤ 10 nM for the second.

`CCC1Oc2ncc(CN3CCN(c4ccc(C(=O)NC)nc4F)CC3)cc2NC1=O` (stereo not drawn) [Compound 56] and `CCC1C(=O)Nc2cc(CN3CCN(c4ccc(C(=O)NC)nc4F)CC3)cnc2C1(C)C` (stereo not drawn) [Compound 61] cannot be ordered by IC50: ≤ 10 nM for the first, ≤ 10 nM for the second.

`CCC1C(=O)Nc2cc(CN3CCN(c4ccc(C(=O)NC)nc4)CC3)cnc2N1C` (stereo not drawn) [Compound 58] and `CCC1C(=O)Nc2cc(CN3CCN(c4ccc(C(=O)NC5CC5)nc4)CC3)cnc2N1C` (stereo not drawn) [Compound 59] cannot be ordered by IC50: ≤ 10 nM for the first, 10 to 50 nM for the second.

`CCc1cc2ncc(CN3CCN(c4cnc(C(=O)NC5CC5)cn4)CC3)cc2[nH]c1=O` [Compound 31] and `CCc1cc2ncc(CN3CCN(c4cnc(C(=O)NC5CC(F)C5)cn4)CC3)cc2[nH]c1=O` (stereo not drawn) [Compound 38] fall in the same range of IC50: 10 to 50 nM for the first, 10 to 50 nM for the second.

`CCc1cc2ncc(CN3CCN(c4cnc(C(=O)NC5CC5)nc4C(F)F)CC3)cc2[nH]c1=O` [Compound 34] and `CCc1cc2ncc(CN3CCN(c4cnc(C(=O)NC5CC5)nc4F)CC3)cc2[nH]c1=O` [Compound 36] cannot be ordered by IC50: ≤ 10 nM for the first, ≤ 10 nM for the second.

`CCc1nc2ccc(CN3CCN(c4ccc(C(=O)NC5CC(F)(F)C5)nc4)CC3)cc2[nH]c1=O` [Compound 22] and `CCc1nc2ccc(CN3CCN(c4ccc(C(=O)NC5CC(F)C5)nc4)CC3)cc2[nH]c1=O` (stereo not drawn) [Compound 21] cannot be ordered by IC50: ≤ 10 nM for the first, ≤ 10 nM for the second.

`CCC1Cc2ncc(CN3CCN(c4ccc(C(=O)NC5CC5)nc4)CC3)cc2NC1=O` (stereo not drawn) [Compound 60] and `CCC1Oc2ncc(CN3CCN(c4ccc(C(=O)NC5CC5)nc4)CC3)cc2NC1=O` (stereo not drawn) [Compound 55] fall in the same range of IC50: 10 to 50 nM for the first, 10 to 50 nM for the second.

`O=C(NC1CC1)c1ccc(N2CCN(Cc3cnc4cc(C5CC5)c(=O)[nH]c4c3)CC2)cn1` [Compound 62] and `O=C(NC1CC1)c1ccc(N2CCN(Cc3cnc4nc(C5CC5)c(=O)[nH]c4c3)CC2)cn1` [Compound 64] cannot be ordered by IC50: 10 to 50 nM for the first, ≤ 10 nM for the second.

`CCc1cc2ncc(CN3CCN(c4ccc(C(=O)NC)nc4F)CC3)nc2[nH]c1=O` [Compound 51] and `CCc1cc2ncc(CN3CCN(c4ccc(C(=O)NC)nc4C(F)F)CC3)nc2[nH]c1=O` [Compound 50] cannot be ordered by IC50: 10 to 50 nM for the first, ≤ 10 nM for the second.

`CCc1nc2ccc(CN3CCN(c4ccc(C(=O)NC5CCC5)nc4)CC3)cc2[nH]c1=O` [Compound 15] and `O=C(NC1CC1)c1ccc(N2CCN(Cc3ccc4nc(CC(F)F)c(=O)[nH]c4c3)CC2)cn1` [Compound 17] cannot be ordered by IC50: ≤ 10 nM for the first, ≤ 10 nM for the second.

`CCc1cc2ncc(CN3CCN(c4ccc(C(=O)NC5CC5F)nn4)CC3)cc2[nH]c1=O` (stereo not drawn) [Compound 37] and `CCc1cc2ncc(CN3CCN(c4ccc(C(=O)NC5CC5)nn4)CC3)cc2[nH]c1=O` [Compound 33] cannot be ordered by IC50: 10 to 50 nM for the first, ≤ 10 nM for the second.

`CCc1cc2ncc(CN3CCN(c4cnc(C(=O)NC)cn4)CC3)cc2[nH]c1=O` [Compound 29] and `CCc1cc2ncc(CN3CCN(c4cnc(C(=O)NC)nc4)CC3)cc2[nH]c1=O` [Compound 2] cannot be ordered by IC50: 10 to 50 nM for the first, ≤ 10 nM for the second.

`CCc1cc2ncc(CN3CCN(c4cnc(C(=O)NC5CC(F)(F)C5)nc4)CC3)cc2[nH]c1=O` [Compound 39] and `CCc1cc2ncc(CN3CCN(c4cnc(C(=O)NC5CC5)nc4)CC3)cc2[nH]c1=O` [Compound 32] fall in the same range of IC50: 10 to 50 nM for the first, 10 to 50 nM for the second.

`CCc1nc2ncc(CN3CCN(c4ccc(C(=O)NC5CC5)nc4)CC3)cc2[nH]c1=O` [Compound 26] and `CCc1nc2ncc(CN3CCN(c4ccc(C(=O)NC5CC5)nc4F)CC3)cc2[nH]c1=O` [Compound 27] cannot be ordered by IC50: ≤ 10 nM for the first, 10 to 50 nM for the second.

`CCc1cc2ncc(CN3CCN(c4ccc(C(=O)NC5CC5)nc4F)CC3)cc2[nH]c1=O` [Compound 7] and `CCc1cc2ncc(CN3CCN(c4ccc(C(=O)NC5CC5)nc4C)CC3)cc2[nH]c1=O` [Compound 8] fall in the same range of IC50: 10 to 50 nM for the first, 10 to 50 nM for the second.

`CNC(=O)c1cnc(N2CCN(Cc3cnc4cc(C5CC5)c(=O)[nH]c4c3)CC2)cn1` [Compound 65] and `CNC(=O)c1ccc(N2CCN(Cc3cnc4cc(C5CC5)c(=O)[nH]c4c3)CC2)nn1` [Compound 67] cannot be ordered by IC50: 10 to 50 nM for the first, ≤ 10 nM for the second.

`CCc1nc2ccc(CN3CCN(c4ccc(C(=O)NC5CC5)nc4)CC3)nc2[nH]c1=O` [Compound 46] and `CCc1nc2ccc(CN3CCN(c4ccc(C(=O)NC)nc4)CC3)nc2[nH]c1=O` [Compound 4] cannot be ordered by IC50: ≤ 10 nM for the first, ≤ 10 nM for the second.

`CCc1cc2ncc(CN3CCN(c4ccc(C(=O)NC)nc4)CC3)nc2[nH]c1=O` [Compound 44] and `CCc1cc2ncc(CN3CCN(c4ccc(C(=O)NC5CC5)nc4)CC3)nc2[nH]c1=O` [Compound 49] cannot be ordered by IC50: ≤ 10 nM for the first, ≤ 10 nM for the second.

`CCc1cc2ncc(CN3CCN(c4ccc(C(=O)NC5CC5F)nc4)CC3)cc2[nH]c1=O` (stereo not drawn) [Compound 11] and `CCc1cc2ncc(CN3CCN(c4ccc(C(=O)NC5CC(F)(F)C5)nc4)CC3)cc2[nH]c1=O` [Compound 13] cannot be ordered by IC50: ≤ 10 nM for the first, ≤ 10 nM for the second.

`O=C(NC1CC1)c1ccc(N2CCN(Cc3ccc4nc(C5CC5)c(=O)[nH]c4c3)CC2)cn1` [Compound 63] and `CCc1cc2ncc(C(C)N3CCN(c4ccc(C(=O)NC5CC5)nc4)CC3)cc2[nH]c1=O` (stereo not drawn) [Compound 42] cannot be ordered by IC50: ≤ 10 nM for the first, 10 to 50 nM for the second.

`CCc1cc2ncc(C(C)N3CCN(c4cnc(C(=O)NC5CC5)nc4)CC3)cc2[nH]c1=O` (stereo not drawn) [Compound 35] and `CCc1cc2ncc(C(C)N3CCN(c4ccc(C(=O)NC)nc4)CC3)cc2[nH]c1=O` (stereo not drawn) [Compound 3] cannot be ordered by IC50: ≤ 10 nM for the first, ≤ 10 nM for the second.

`CCC1Nc2ncc(CN3CCN(c4ccc(C(=O)NC)nc4)CC3)cc2NC1=O` (stereo not drawn) [Compound 57] and `CCc1cc2ncc(CN3CCN(c4ccc(C(=O)NC)nn4)CC3)cc2[nH]c1=O` [Compound 30] cannot be ordered by IC50: ≤ 10 nM for the first, 10 to 50 nM for the second.

`CNC(=O)c1ccc(N2CCN(C(C)c3cnc4cc(C5CC5)c(=O)[nH]c4c3)CC2)cn1` (stereo not drawn) [Compound 68] and `CCc1cc2ncc(C(C)N3CCN(c4ccc(C(=O)NC)nc4F)CC3)cc2[nH]c1=O` (stereo not drawn) [Compound 41] cannot be ordered by IC50: ≤ 10 nM for the first, 10 to 50 nM for the second.

`CCc1nc2ncc(CN3CCN(c4ccc(C(=O)NC5CC5)nc4C(F)F)CC3)cc2[nH]c1=O` [Compound 28] and `CCc1cc2ncc(CN3CCN(c4ccc(C(=O)NC5CC5)nc4C(F)F)CC3)cc2[nH]c1=O` [Compound 9] fall in the same range of IC50: 10 to 50 nM for the first, 10 to 50 nM for the second.

`CCc1nc(C(=O)NC)ccc1N1CCN(C(C)c2cnc3cc(CC)c(=O)[nH]c3c2)CC1` (stereo not drawn) [Compound 40] and `CCc1cc2ncc(C(C)N3CCN(c4ccc(C(=O)NC)nc4C(F)F)CC3)cc2[nH]c1=O` (stereo not drawn) [Compound 43] cannot be ordered by IC50: 10 to 50 nM for the first, ≤ 10 nM for the second.

`CCc1nc2ccc(CN3CCN(c4ccc(C(=O)NC)nc4F)CC3)nc2[nH]c1=O` [Compound 48] and `CCc1nc2ccc(CN3CCN(c4ccc(C(=O)NC)nc4C)CC3)nc2[nH]c1=O` [Compound 47] cannot be ordered by IC50: ≤ 10 nM for the first, ≤ 10 nM for the second.

For `CNC(=O)c1ncc(N2CCN(Cc3cnc4cc(C5CC5)c(=O)[nH]c4c3)CC2)cn1` [Compound 66], the IC50 was 10 to 50 nM.

Same assay, conditions: numeric values; read-out: Inhibitory activity against PARP-1 (IC50)

Work on `CCC1Oc2ncc(CN3CCN(c4ccc(C(=O)NC)nc4)CC3)cc2NC1=O` (stereo not drawn) [Compound 5] yielded an IC50 of 1.7 nM.
